Measured values reported in patent US11759462B2, “Spirocyclic compounds as tryptophan hydroxylase inhibitors” (priority 2013, dated 2023).

System: jejunal mucosal 5-HT in mice (C57 BL6)
Assay: Reduction of mucosal 5-HT concentrations (Example C, repeated oral dosing)
Type: in vivo, mouse
Conditions: P-value class
Description: The efficacy of the TPH1 inhibitors of the invention was assessed for the ability to decrease intestinal serotonin concentration in mice. Mice (C57 BL6) were administered an oral dose of 10 or 50 mg/kg of the test article in the evening. […] Following an overnight fast, each animal was euthanized by exsanguination under isoflurane anesthesia. Jejunal intestinal mucosa was isolated and homogenized in […] of a buffer containing 0.3M trichloroacetic acid, 0.1M sodium acetate, 10 mM EDTA, 20 mM sodium bisulfate and 50 mM ascorbic acid. Following centrifugation the 5-HT levels in the supernatants were measured by HPLC. The remaining mucosal pellet was solubilized overnight at 37° C. in a 0.1% sodium dodecyl sulfate buffer in 0.1N NaOH followed by determination of protein concentrations using a BCA protein assay (Pierce, Rockford, Ill.). 5-HT levels were normalized to protein and data were expressed as mean percent reduction of mucosal 5-HT levels relative to vehicle control±SEM (percent 5-HT reduction). All animal studies were carried out with protocols approved by the Institutional Animal Care and Use Committee. P-values, indicating statistical significance of the data (ANOVA) are provided in the table: * refers to P<0.05,** refers to P<0.01, *** refers to P<0.005, and **** refers to P<0.0005.

[1] = after three oral doses (first 10 or 50 mg/kg, then two doses of 50 mg/kg) (title)

Compound | Efficacy (statistical significance of reduction of mucosal 5-HT concentrations relative to vehicle) [1] | Efficacy (statistical significance of reduction of mucosal 5-HT concentrations relative to vehicle) ((title))
CCOC(=O)[C@@H]1CC2(CCN(c3cc(O[C@H](c4ccc(-c5ccc(OC(C)C)cc5)cc4-n4ccc(C)n4)C(F)(F)F)nc(N)n3)CC2)CN1 [Example 63cn, (S)-ethyl 8-(2-amino-6-((R)-2,2,2-trifluoro-1-(4′-isopropoxy-3-(3-methyl-1H-pyrazol-1-yl)-[1,1′-biphenyl]-4-yl)ethoxy)pyrimidin-4-yl)-2,8-diazaspiro[4.5]decane-3-carboxylate] | **** (**** refers to P<0.0005) | –
CCOC(=O)[C@@H]1CC2(CCN(c3cc(O[C@H](c4cc(Cl)ccc4-c4cccc(S(C)(=O)=O)c4)C(F)(F)F)nc(N)n3)CC2)CN1 [Example 63ae, (S)-ethyl 8-(2-amino-6-((R)-1-(4-chloro-3′-(methylsulfonyl)-[1,1′-biphenyl]-2-yl)-2,2,2-trifluoroethoxy)pyrimidin-4-yl)-2,8-diazaspiro[4.5]decane-3-carboxylate] | *** (*** refers to P<0.005) | –
CCOC(=O)[C@@H]1CC2(CCN(c3cc(O[C@H](c4ccc(Cl)cc4-c4cc(F)cc(F)c4)C(F)(F)F)nc(N)n3)CC2)CN1 [Example 63ey, (S)-ethyl 8-(2-amino-6-((R)-1-(5-chloro-3′,5′-difluoro-[1,1′-biphenyl]-2-yl)-2,2,2-trifluoroethoxy)pyrimidin-4-yl)-2,8-diazaspiro[4.5]decane-3-carboxylate] | ** (** refers to P<0.01) | –
(S)-cyclopentyl 8-(2-amino-6-((R)-1-(4′-chloro-3-(3- methyl-1H-pyrazol-1-yl)-[1,1′-biphenyl]-4-yl)-2,2,2- trifluoroethoxy)pyrimidin-4-yl)-2,8- diazaspiro[4.5]decane-3-carboxylate [Example 69b] | – | *** (*** refers to P<0.005)
CCOC(=O)[C@@H]1CC2(CCN(c3cc(O[C@H](c4ccc(-c5ccc(Cl)c(Cl)c5)cc4-n4ccc(C)n4)C(F)(F)F)nc(N)n3)CC2)CN1 [Example 63aw, (S)-ethyl 8-(2-amino-6-((R)-1-(3′,4′-dichloro-3-(3-methyl-1H-pyrazol-1-yl)-[1,1′-biphenyl]-4-yl)-2,2,2-trifluoroethoxy)pyrimidin-4-yl)-2,8-diazaspiro[4.5]decane-3-carboxylate] | **** (**** refers to P<0.0005) | –
CCOC(=O)[C@@H]1CC2(CCN(c3cc(O[C@H](c4ccc(Cl)cc4-c4cccnc4)C(F)(F)F)nc(N)n3)CC2)CN1 [Example 63fo, (S)-ethyl 8-(2-amino-6-((R)-1-(4-chloro-2-(pyridin-3-yl)phenyl)-2,2,2-trifluoroethoxy)pyrimidin-4-yl)-2,8-diazaspiro[4.5]decane-3-carboxylate] | * (* refers to P<0.05) | –
CCOC(=O)[C@@H]1CC2(CCN(c3cc(O[C@H](c4ccc(Cl)cc4-c4cccc(C(C)(C)C)c4)C(F)(F)F)nc(N)n3)CC2)CN1 [Example 63el, (S)-ethyl 8-(2-amino-6-((R)-1-(3′-(tert-butyl)-5-chloro-[1,1 biphenyl]-2-yl)-2,2,2-trifluoroethoxy)pyrimidin-4-yl)-2,8-diazaspiro[4.5]decane-3-carboxylate] | *** (*** refers to P<0.005) | –
